Entries after “also recorded” stand apart in the source; their conditions may differ.
Tests used:
[1] = test system: male and female Sprague-Dawley rats; assay: Experiment 1: chronic treatment of male and female rats, 4 weeks; assay type: in vivo, rat; settings: mean ± SEM; for Food intake: 2.5 ug/g of body weight daily injection; for Food intake / Food intake (g): n = 5
Experimental: Twenty-five male and 25 female Sprague-Dawley rats, 9-10 weeks of age, were randomly assigned to groups of five animals, respectively, as a control group (no treatment) (C), for treatment with vehicle only (V), estradiol (E), (±)-Z-BDDA, or (+)-Z-BDDA. Each animal in group V received a daily 0.1 cc injection of a 10% ethanol-90% olive oil solution; the other treatments received their respective compound as a daily 0.1 cc injection, e.g., 2.5 μg of compound/g of body weight, in a 10% ethanol-90% olive oil solution. A temperature of 21° C. and an artificial 12-h light-dark cycle was maintained in the animal room. All animals were maintained on standard chow in powdered form for four weeks, then sacrificed after an overnight fast under i.p. pentobarbital anesthesia (50 mg/kg). Animal weight and food intake were measured weekly during the study, and the subsequent food-efficiency ratio [FER(g of weight change/g of food intake)] was determined. During sacrifice, blood was collected (via cardiac puncture) for cholesterol measurements. Immediately following sacrifice the fat pads and reproductive organs were removed and weighed.
Experiments 1 and 2 employed a randomized design. All data were analyzed by one-way analysis of variance (ANOVA,)and post-hoc comparisons were made with Tukey pairwise comparisons test. Significance was confirmed at p≦0.05 (SYSTAT 7.0, SPSS INC., 1997), and all values are reported as means±standard error of the mean.

[2] = test system: male Sprague-Dawley rats; assay: Example 4: effects on prostate and testis of male rats, 6 weeks; assay type: in vivo, rat; settings: for testis histology: Leydig cells / testis histology: spermatogenesis: FIGS. 5a-f; for Prostate Weight as % Body Weight / Seminal Vesicle Weight as % Body Weight / Testis Weight as % Body Weight / Body Weight (g): 0.1 ug/g of body weight once a day, mean ± SEM; for Body Weight (g): n = 10
Experimental: Sixty male Sprague-Dawley rats, 7-8 weeks of age, were randomly assigned to groups of ten animals. Each group was randomly assigned to one of six treatments: Vehicle control (C), Estradiol-17β(E), (−)-Z-BDDA, (+)-Z-BDDA, (−)-HAA, and (+)-HAA. The compounds were all administered at a dose of 0.1 μg/g of body weight in 0.1 cc once a day for 6 weeks. The estrogenic compounds were dissolved in 10% ethanol and 90% olive oil vehicle. A temperature of 21° C. and an artificial 12 h light-dark cycle were maintained in the animal room. All animals were maintained on standard chow in powdered form for six weeks, and then sacrificed after an overnight fast under i.p. pentobarbitol anesthesia (50 mg/kg). Animal weight was measured weekly during the study. During sacrifice, blood was collected via cardiac puncture. Immediately following sacrifice, the fat pads, livers, pituitaries, testes, seminal vesicles, and prostate were removed and weighed, and snap frozen in liquid nitrogen. Prostates and one testis from 2-3 animals in each treatment group were fixed in 10% formalin for histological examination. These tissues were fixed overnight, blocked in paraffin, sectioned at 4 μm, stained with Hematoxylin and Eodsin, cover slipped, and examined microscopically. Quantitative results were subjected to an analysis of variance and means separated by a Tukey's Test (SYSTAT, Chicago, Ill.).

[3] = test system: female mice; settings: E2 5 g/animal/day, (±)-Z-BDDA 5, 50, and 500 g/animal/day, versus control group; cited from earlier work
[4] = test system: estrogen receptors ERα and ERβ; settings: direct receptor binding assays or dose-response profiles of estrogen-responsive reporter genes in cell culture; cited from earlier work
[5] = female rats (uterus), 2.5 ug/g of body weight daily
[6] = female rats, 2.5 ug/g of body weight daily, g of weight change/g of food intake
[7] = female rats, 2.5 ug/g of body weight daily
[8] = male rats (testis), 2.5 ug/g of body weight daily
[9] = male rats, 2.5 ug/g of body weight daily

Row | Compound | Food intake ([1]; female rats) | FER (food efficiency ratio) [1, 6] | Cholesterol (mg/dl) [1, 7] | Visceral fat (g) [1, 7] | Uterus/testis weight (g) [1, 8] | Cholesterol (mg/dl) [1, 9] | FER (food efficiency ratio) [1, 9] | Prostate weight (g) [1, 9] | Visceral fat (g) [1, 9] | Food intake (g) [1, 9] | testis histology: Leydig cells ([2]; 0.1 μg/g daily) | testis histology: spermatogenesis ([2]; 0.1 μg/g daily) | Prostate Weight as % Body Weight [2] | Seminal Vesicle Weight as % Body Weight [2] | Testis Weight as % Body Weight [2] | Body Weight (g) [2] | further results
1 | C[C@]12CCC3c4ccc(O)cc4CCC3[C@@H]1CCC2O (single isomer, unassigned; (+)) [estradiol, (+)-17β-estradiol, reference compound] | 371.6 ± 17.8 g | 0.035 ± 0.011 | 44.9 ± 15.8^1 mg/dl | 0.8 ± 0.1^1 g | 0.94 ± 0.13^1,2 g | 51.5 ± 9.5^1,2 mg/dl | −0.057 ± 0.012^1,2 | 0.09 ± 0.01^1,2 g | 4.2 ± 0.4^2 g | 298.2 ± 18.8^1 g | small | halted at round (Golgi phase) spermatids | 0.05 ± 0.00^1 % Body Weight | 0.02 ± 0.00^1 % Body Weight | 0.49 ± 0.13^1,4 % Body Weight | 207.2 ± 4.6^1 g | Uterus/testis weight [1, 5]: 1.58 ± 0.15 g; rate of weight gain [3]: increased
2 | CC[C@H]1c2ccc3cc(O)ccc3c2CC[C@@]1(C)C(=O)O [(+)-Z-BDDA, (+)-Z-bisdehydrodoisynolic acid] | 315.2 ± 18.4 g | 0.045 ± 0.017^4 | 35.1 ± 8.6^1 mg/dl | 2.1 ± 0.3^1,3 g | 0.84 ± 0.06^1,2 g | 24.6 ± 2.2^1,2,3 mg/dl | −0.174 ± 0.027^1,2,3,4 | 0.13 ± 0.04^1,2,3 g | 5.1 ± 0.2^2 g | 326.0 ± 9.5^1 g | normal | normal | 0.05 ± 0.01^1 % Body Weight | 0.23 ± 0.12^2 % Body Weight | 0.98 ± 0.15 % Body Weight | 234.8 ± 10.1^1,2 g | binding affinity for estrogen receptors [4]: even lower than that of the (−) enantiomer; Uterus/testis weight (g) [1, 5]: 2.57 ± 0.79^1,2 g; prostate histology (alveoli) ([2]; 0.1 μg/g daily, FIGS. 4a-f): normal alveoli; also recorded: tubules and alveoli being slightly smaller; gross testes weights unadjusted for bodyweight ([2]; 0.1 μg/g daily, data not shown): lighter (P<0.05) than those in control rats

Source: patent US6608111B1, “Method for treating or preventing prostatic conditions” (Southern Illinois University Office of Research, …, priority 1998, dated 2003)
